Test results: patent US11793823B2, “Compounds and pharmaceutical uses thereof” (SyneuRx International (Taiwan) Corp., priority 2020, dated 2023)
Where two headings read alike, the source gives them in different places.

Experiments:
[1] = system: MK-801 treated mice; test: Open field test, MK-801 induced hyper-locomotion; type: in vivo; conditions: for relief of MK801-induced hyperactivity: MK-801 0.2 mg/kg i.p., open field
Protocol: (§1) C57BL/6J male mice were group housed (3-5 mice per cage) with food and water available ad libitum in polysulfone ventilated cages (Alternative Design, AR, USA) in the animal room of SyneuRx. The colony was maintained on a 12/12-h light/dark cycle at the temperature of 22±2° C. and all behavioral studies were performed during the dark cycle. All animals used in this study were adult mice (at least 2.5 months of age). All animal procedures were performed according to the protocols approved by Institutional Animal Care and Use Committee (IACUC).
(§2) The mice were randomly assigned into five groups for open field test, Group 1: vehicle control, Group 2: MK-801, Group 3: Compound 66 at 10 mg/kg+MK-801, Group 4: Compound 66 at 30 mg/kg+MK-801, Group 5: Compound 66 at 100 mg/kg+MK-801. Mice at Group 2-5 received an acute administration of MK-801 (Sigma-Aldrich USA), a NMDA receptor antagonist, dissolved in normal saline, at 0.2 mg/kg for open field. For pre-pulse inhibition (PPI) test, animal was randomly assigned for four groups, Group 1: vehicle control, Group 2: MK-801, Group 3: Compound 66 at 3 mg/kg+MK-801, Group 4: Compound 66 at 10 mg/kg. Group 2-4 was received 0.3 mg/kg, MK-801. MK-801 was administrated by i.p. injection 20 minutes prior to open field and PPI tests. Test article, compound 66 (dissolved in ddH2O with 65% PEG400 and 10% DMSO), was orally treated 20 minutes prior to the MK-801 administration.
The open field task is a common measurement of novelty induced exploratory behavior and general activity in both mice and rats. The objective of this experiment was to evaluate the efficacy of compound 66 on attenuating the MK-801 induced hyper-locomotion. In this study, the mice were placed in a Plexiglas cage (37.5 cm×21.5 cm×18 cm) under 50-65 lux light intensity. Their spontaneous locomotor activities were measured for 60 minutes using the Photobeam Activity System (PAS)-open field (San Diego Instruments, San Diego, CA, USA). The total number of photo beam breaks of each mouse was measured as an index of locomotion activity.
as §2, with “74” for “66”, “field test.” for “field.”
(§3) All mice were tested with open field and pre-pulse inhibition tasks. The open field and pre-pulse inhibition tasks were used to evaluate the efficacy of the compound 74 on attenuating the MK-801 induced hyper-locomotion and deficit of sensorimotor gating function in mice, respectively. The apparatus and recording method of open field and pre-pulse inhibition task were as described above in Example 45.
Mice at Group 2-5 received an acute administration of MK-801 (Sigma-Aldrich USA), a NMDA receptor antagonist, dissolved in normal saline, at 0.2 mg/kg for open field test. […] Group […] was received 0.3 mg/kg, MK-801. MK-801 was administrated by i.p. injection 20 minutes prior to open field and PPI tests.
The open field task is a common measurement of novelty induced exploratory behavior and general activity in both mice and rats. […] In this study, the mice were placed in a Plexiglas cage (37.5 cm×21.5 cm×18 cm) under 50-65 lux light intensity. […]

[2] = system: MK-801 treated mice; test: Pre-pulse inhibition (PPI) test, MK-801 induced deficit of sensorimotor gating; type: in vivo; conditions: MK-801 0.3 mg/kg i.p.
Protocol: as §1, §2
Pre-pulse inhibition, using SR-LAB startle apparatus (San Diego Instruments, San Diego, CA, USA), was used to determine the efficacy of compound 66 on attenuating the MK-801 induced deficit of sensorimotor gating function in mice. Under 65 dB background noise, each session was composed of a 5-minute accumulation period followed by 64 trials in four blocks. The pulse alone (PA) trial was a 40 ms, 120 dB white noise burst. In the prepulse (pp)+pulse trials, a 20 ms white noise prepulse stimuli of 71 dB (pp6), 75 dB (pp10), and 83 dB (pp18) were presented 100 ms before a 40 ms 120 dB pulse. The non-stimulus (NS) trials presented the background noise only. The initial and the last blocks were composed of six PA trials, respectively. Two middle blocks consisted of PA, pp+pulse, and NS trials. These trials were presented pseudo-randomly and separated by intertribal intervals of 15 seconds on average (varying between 10 to 20 s). The percentage of prepulse inhibition was evaluated by the following formula: % PPI=100×[(PA score)−(pp-P score)]/(PA score), where the PA score was the average of the PA value in the middle blocks.
as §2, with “74” for “66”, “field test.” for “field.”
as §3, with “45. […]” for “45.”

[3] = biological target: human D-amino acid oxidase (hDAAO) (Homo sapiens (Human), UniProt P14920); test: In vitro human D-amino acid oxidase (hDAAO) activity, D-Serine/Amplex Red fluorescence; type: biochemical; conditions: D-Serine substrate, 20 min
human D-amino acid oxidase (hDAAO), sequence (P14920 whole entry): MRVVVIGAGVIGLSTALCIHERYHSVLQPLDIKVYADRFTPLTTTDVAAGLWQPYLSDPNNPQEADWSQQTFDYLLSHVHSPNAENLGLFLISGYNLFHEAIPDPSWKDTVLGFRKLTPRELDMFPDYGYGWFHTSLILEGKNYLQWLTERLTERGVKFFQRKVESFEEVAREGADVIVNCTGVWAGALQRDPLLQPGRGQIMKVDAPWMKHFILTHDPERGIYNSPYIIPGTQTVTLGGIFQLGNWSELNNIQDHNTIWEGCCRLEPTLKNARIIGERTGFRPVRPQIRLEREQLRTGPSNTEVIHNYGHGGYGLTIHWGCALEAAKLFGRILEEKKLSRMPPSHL
Outline: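 Recombinant hDAAO activity with D-serine as substrate; H2O2 was coupled via HRP to Amplex Red and fluorescence read at ex 530/em 590 nm at 0 and 20 min, dark, room temperature, Tris pH 8.5 with FAD. Inhibition came from the 20–0 min signal change relative to DMSO, and IC50 from nonlinear fits of 3-fold dilutions run in triplicate.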

[4] = biological target: SARS-CoV-2 3CLPro (Severe acute respiratory syndrome coronavirus 2 (2019-nCoV) (SARS-CoV-2), UniProt P0DTD1); test: biochemical; conditions: final DMSO concentration 2%
[5] = 75 dB and 83 dB pre-pulse, 10 mg/kg oral
[6] = 75 dB and 83 dB pre-pulse, 3 mg/kg oral

Structure (SMILES): O=C(O)c1cc(O)c(O)c(OC(=O)c2cc(O)c(O)c(OC(=O)c3cc(O)c(O)c(OC(=O)c4cc(O)c(O)c(OC(=O)c5cc(O)c(O)c(OC(=O)c6cc(CCc7ccccc7C(F)(F)F)n[nH]6)c5)c4)c3)c2)c1 [Compound 74, 3-((3-((3-((3-((3,4-dihydroxy-5-((3-(2-(trifluoromethyl)phenethyl)-1H-pyrazole-5-carbonyl)oxy)benzoyl)oxy)-4,5-dihydroxybenzoyl)oxy)-4,5-dihydroxybenzoyl)oxy)-4,5-dihydroxybenzoyl)oxy)-4,5-dihydroxybenzoic acid]
- effect on MK-801 induced hyper-locomotion vs MK-801 group ([1]; 30 mg/kg and 100 mg/kg oral): significantly reduced
- effect on MK-801 induced hyper-locomotion vs MK-801 group ([1]; low dose 10 mg/kg oral): marginally lower locomotion activity
- relief of MK801-induced hyperactivity ([1]; middle (30 mg/kg) and high dose (100 mg/kg) oral as worded): 69%
- effect on pre-pulse inhibition vs MK-801 group [2, 5]: significantly improved PPI
- IC50 [3]: 0.031 µM
- IC50 ([4]; read-out: IC50): > 31.2 µM
- IC50 ([4]; read-out: IC50 (μg/mL) (converted)): > 31.2 µM

Structure (SMILES): O=C(Oc1cc(C(=O)Oc2cc(C(=O)Oc3cc(C(=O)O[C@H]4OC[C@@H](OC(=O)c5cc(O)c(O)c(OC(=O)c6cc(O)c(O)c(OC(=O)c7cc(O)c(O)c(OC(=O)c8cc(O)c(O)c(O)c8)c7)c6)c5)[C@H](OC(=O)c5cc(O)c(O)c(OC(=O)c6cc(O)c(O)c(OC(=O)c7cc(O)c(O)c(OC(=O)c8cc(O)c(O)c(O)c8)c7)c6)c5)[C@H]4OC(=O)c4cc(O)c(O)c(OC(=O)c5cc(O)c(O)c(OC(=O)c6cc(O)c(O)c(OC(=O)c7cc(O)c(O)c(O)c7)c6)c5)c4)cc(O)c3O)cc(O)c2O)cc(O)c1O)c1cc(O)c(O)c(O)c1 [Compound 121, (2R,3R,4S,5R)-tetrahydro-2H-pyran-2,3,4,5-tetrayl tetrakis(3-((3-((3,4-dihydroxy-5-((3,4,5-trihydroxybenzoyl)oxy)benzoyl)oxy)-4,5-dihydroxybenzoyl)oxy)-4,5-dihydroxybenzoate)]
- effect on MK-801 induced hyper-locomotion vs MK-801 group ([1]; 3 mg/kg and 10 mg/kg oral): marginally lower locomotion activity
- effect on MK-801 induced hyper-locomotion vs MK-801 group ([1]; high dose 30 mg/kg oral): significantly reduced
- relief of MK801-induced hyperactivity ([1]; high dose 30 mg/kg oral): 48%
- effect on pre-pulse inhibition vs MK-801 group ([2]; 75 and 83 dB pre-pulse, all tested doses 3, 10 and 30 mg/kg oral): higher potency
- IC50 [3]: 0.0025 µM

Structure (SMILES): O=C(O)c1cc(O)c(O)c(OC(=O)c2cc(O)c(O)c(OC(=O)c3cc(O)c(O)c(OC(=O)c4cc(O)c(O)c(OC(=O)c5cc(O)c(O)c(OC(=O)c6cc(CCc7ccc(C(F)(F)F)cc7)n[nH]6)c5)c4)c3)c2)c1 [Compound 66, 3-((3-((3-((3-((3,4-dihydroxy-5-((3-(4-(trifluoromethyl)phenethyl)-1H-pyrazole-5-carbonyl)oxy)benzoyl)oxy)-4,5-dihydroxybenzoyl)oxy)-4,5-dihydroxybenzoyl)oxy)-4,5-dihydroxybenzoyl)oxy)-4,5-dihydroxybenzoic acid]
- effect on MK-801 induced hyper-locomotion vs MK-801 group ([1]; 10, 30 and 100 mg/kg oral, dose-dependent): significantly reduced
- relief of MK801-induced hyperactivity ([1]; high dose 100 mg/kg oral): 67%
- effect on pre-pulse inhibition vs MK-801 group ([2]; 71 dB pre-pulse, 10 mg/kg oral): relieve PPI deficit to basal level
- effect on pre-pulse inhibition vs MK-801 group [2, 6]: marginal improvement
- effect on pre-pulse inhibition vs MK-801 group [2, 5]: significantly higher percentage of pre-pulse inhibition
- IC50 [3]: 0.025 µM

Structure (SMILES): O=C(OC[C@H]1O[C@H](OC(=O)c2cc(O)c(O)c(OC(=O)c3cc(O)c(O)c(OC(=O)c4cc(O)c(O)c(OC(=O)c5cc(O)c(O)c(O)c5)c4)c3)c2)[C@H](OC(=O)c2cc(O)c(O)c(OC(=O)c3cc(O)c(O)c(OC(=O)c4cc(O)c(O)c(OC(=O)c5cc(O)c(O)c(O)c5)c4)c3)c2)[C@@H]1OC(=O)c1cc(O)c(O)c(OC(=O)c2cc(O)c(O)c(OC(=O)c3cc(O)c(O)c(OC(=O)c4cc(O)c(O)c(O)c4)c3)c2)c1)c1cc(O)c(O)c(OC(=O)c2cc(O)c(O)c(OC(=O)c3cc(O)c(O)c(OC(=O)c4cc(O)c(O)c(O)c4)c3)c2)c1 [Compound 138, (2R,3R,4R,5R)-5-(((3-((3-((3,4-dihydroxy-5-((3,4,5-trihydroxybenzoyl)oxy)benzoyl)oxy)-4,5-dihydroxybenzoyl)oxy)-4,5-dihydroxybenzoyl)oxy)methyl)tetrahydrofuran-2,3,4-triyl tris(3-((3-((3,4-dihydroxy-5-((3,4,5-trihydroxybenzoyl)oxy)benzoyl)oxy)-4,5-dihydroxybenzoyl)oxy)-4,5-dihydroxybenzoate)]
- effect on MK-801 induced hyper-locomotion vs MK-801 group ([1]; 3, 10 and 30 mg/kg oral, dose-dependent): significantly reduced
- relief of MK801-induced hyperactivity ([1]; high dose 30 mg/kg oral): 43%
- effect on pre-pulse inhibition vs MK-801 group [2, 6]: relieve PPI deficit
- IC50 [3]: 0.004 µM
